# Test results from PubChem BioAssay (NCI).
#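 A five-concentration, 48-hour dose response in 96-well plates underlies each endpoint, interpolated linearly between surrounding concentrations. The concentration for 50% growth inhibition is given as GI50. TGI: total growth inhibition.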
# Columns and labels:
# Assay in all cases: NCI tumour cell line growth inhibition, 48 h
# HCT-116 colon = system: HCT-116 colon
# K-562 leukemia = system: K-562 leukemia
# SF-268 CNS = system: SF-268 CNS
# NCI-H460 lung = system: NCI-H460 lung
# OVCAR-8 ovarian = system: OVCAR-8 ovarian
# BT-549 breast = system: BT-549 breast
# UACC-62 melanoma = system: UACC-62 melanoma
# HCC-2998 colon = system: HCC-2998 colon
# HT29 colon = system: HT29 colon
# SN12C renal = system: SN12C renal
# OVCAR-4 ovarian = system: OVCAR-4 ovarian
# HOP-92 NSCLC = system: HOP-92 NSCLC
# UACC-257 melanoma = system: UACC-257 melanoma
# HCT-15 colon = system: HCT-15 colon
# M14 melanoma = system: M14 melanoma
# IGROV1 ovarian = system: IGROV1 ovarian
# NCI/ADR-RES ovarian = system: NCI/ADR-RES ovarian
# A498 renal = system: A498 renal
# SF-295 CNS = system: SF-295 CNS
# MDA-MB-435 = system: MDA-MB-435
# RPMI-8226 leukemia = system: RPMI-8226 leukemia
# SR leukemia = system: SR leukemia
# U251 CNS = system: U251 CNS
# 786-0 renal = system: 786-0 renal
# CAKI-1 renal = system: CAKI-1 renal
# NCI-H226 lung = system: NCI-H226 lung
# NCI-H522 lung = system: NCI-H522 lung
# PC-3 prostate = system: PC-3 prostate
# MDA-MB-231 breast = system: MDA-MB-231 breast
# SNB-19 CNS = system: SNB-19 CNS
# MOLT-4 leukemia = system: MOLT-4 leukemia
# HOP-62 NSCLC = system: HOP-62 NSCLC
# T-47D breast = system: T-47D breast
# SW-620 colon = system: SW-620 colon
# LOX IMVI melanoma = system: LOX IMVI melanoma
# OVCAR-3 ovarian = system: OVCAR-3 ovarian
# RXF 393 renal = system: RXF 393 renal
# HS 578T breast = system: HS 578T breast
# SK-OV-3 ovarian = system: SK-OV-3 ovarian
# KM12 colon = system: KM12 colon
# DU-145 prostate = system: DU-145 prostate
# CCRF-CEM leukemia = system: CCRF-CEM leukemia
# A549 NSCLC = system: A549 NSCLC
# COLO 205 colon = system: COLO 205 colon
# SK-MEL-5 melanoma = system: SK-MEL-5 melanoma
# UO-31 renal = system: UO-31 renal
# TK-10 renal = system: TK-10 renal
# MALME-3M melanoma = system: MALME-3M melanoma
# MCF7 breast = system: MCF7 breast
# NCI-H23 lung = system: NCI-H23 lung
# SNB-75 CNS = system: SNB-75 CNS
# HL-60(TB) leukemia = system: HL-60(TB) leukemia
smiles,measurement,setting,value
CC(C)(C)OC(=O)N[C@@H](Cc1ccccc1)C(=O)N(Cc1ccccc1)C1(C(=O)NCc2ccccc2)CCN(Cc2ccccc2)CC1,GI50,HCT-116 colon,2.42 µM
same,TGI,HCT-116 colon,10.1 µM
same,GI50,K-562 leukemia,3.39 µM
same,TGI,K-562 leukemia,> 100 µM
same,GI50,SF-268 CNS,4.88 µM
same,TGI,SF-268 CNS,> 100 µM
same,GI50,NCI-H460 lung,3 µM
same,TGI,NCI-H460 lung,87.6 µM
same,GI50,OVCAR-8 ovarian,3.51 µM
same,TGI,OVCAR-8 ovarian,> 100 µM
same,GI50,BT-549 breast,2.11 µM
same,TGI,BT-549 breast,8 µM
same,GI50,UACC-62 melanoma,2.54 µM
same,TGI,UACC-62 melanoma,7.88 µM
same,GI50,HCC-2998 colon,4.54 µM
same,TGI,HCC-2998 colon,> 100 µM
same,GI50,HT29 colon,2.16 µM
same,TGI,HT29 colon,6.82 µM
same,GI50,SN12C renal,3.45 µM
same,TGI,SN12C renal,> 100 µM
same,GI50,OVCAR-4 ovarian,3.23 µM
same,TGI,OVCAR-4 ovarian,> 100 µM
same,GI50,HOP-92 NSCLC,1.45 µM
same,TGI,HOP-92 NSCLC,5.33 µM
same,GI50,UACC-257 melanoma,2.54 µM
same,TGI,UACC-257 melanoma,> 100 µM
same,GI50,HCT-15 colon,3.16 µM
same,TGI,HCT-15 colon,> 100 µM
same,GI50,M14 melanoma,2.6 µM
same,TGI,M14 melanoma,44.5 µM
same,GI50,IGROV1 ovarian,5.7 µM
same,TGI,IGROV1 ovarian,> 100 µM
same,GI50,NCI/ADR-RES ovarian,2.85 µM
same,TGI,NCI/ADR-RES ovarian,46.9 µM
same,GI50,A498 renal,1.43 µM
same,TGI,A498 renal,6.36 µM
same,GI50,SF-295 CNS,2.9 µM
same,TGI,SF-295 CNS,> 100 µM
same,GI50,MDA-MB-435,3.04 µM
same,TGI,MDA-MB-435,> 100 µM
same,GI50,RPMI-8226 leukemia,2.18 µM
same,TGI,RPMI-8226 leukemia,6.98 µM
same,GI50,SR leukemia,2.33 µM
same,TGI,SR leukemia,7.51 µM
same,GI50,U251 CNS,3.19 µM
same,TGI,U251 CNS,> 100 µM
same,GI50,786-0 renal,2.99 µM
same,TGI,786-0 renal,43.3 µM
same,GI50,CAKI-1 renal,2.32 µM
same,TGI,CAKI-1 renal,> 100 µM
same,GI50,NCI-H226 lung,3.2 µM
same,TGI,NCI-H226 lung,> 100 µM
same,GI50,NCI-H522 lung,4.02 µM
same,TGI,NCI-H522 lung,> 100 µM
same,GI50,PC-3 prostate,2.46 µM
same,TGI,PC-3 prostate,> 100 µM
same,GI50,MDA-MB-231 breast,3.01 µM
same,TGI,MDA-MB-231 breast,79 µM
same,GI50,SNB-19 CNS,5.27 µM
same,TGI,SNB-19 CNS,> 100 µM
same,GI50,MOLT-4 leukemia,1.83 µM
same,TGI,MOLT-4 leukemia,6.33 µM
same,GI50,HOP-62 NSCLC,3.89 µM
same,TGI,HOP-62 NSCLC,> 100 µM
same,GI50,T-47D breast,2.89 µM
same,TGI,T-47D breast,> 100 µM
same,GI50,SW-620 colon,3.49 µM
same,TGI,SW-620 colon,> 100 µM
same,GI50,LOX IMVI melanoma,3.65 µM
same,TGI,LOX IMVI melanoma,21.2 µM
same,GI50,OVCAR-3 ovarian,3.95 µM
same,TGI,OVCAR-3 ovarian,> 100 µM
same,GI50,RXF 393 renal,3.12 µM
same,TGI,RXF 393 renal,> 100 µM
same,GI50,HS 578T breast,4.22 µM
same,TGI,HS 578T breast,> 100 µM
same,GI50,SK-OV-3 ovarian,3 µM
same,TGI,SK-OV-3 ovarian,> 100 µM
same,GI50,KM12 colon,4.12 µM
same,TGI,KM12 colon,> 100 µM
same,GI50,DU-145 prostate,5.38 µM
same,TGI,DU-145 prostate,> 100 µM
same,GI50,CCRF-CEM leukemia,3.35 µM
same,TGI,CCRF-CEM leukemia,> 100 µM
same,GI50,A549 NSCLC,3.85 µM
same,TGI,A549 NSCLC,> 100 µM
same,GI50,COLO 205 colon,1.65 µM
same,TGI,COLO 205 colon,3.32 µM
same,GI50,SK-MEL-5 melanoma,1.73 µM
same,TGI,SK-MEL-5 melanoma,3.29 µM
same,GI50,UO-31 renal,2.16 µM
same,TGI,UO-31 renal,> 100 µM
same,GI50,TK-10 renal,3.17 µM
same,TGI,TK-10 renal,70.3 µM
same,GI50,MALME-3M melanoma,3.02 µM
same,GI50,MCF7 breast,2.82 µM
same,TGI,MCF7 breast,19.3 µM
same,GI50,NCI-H23 lung,5.67 µM
same,TGI,NCI-H23 lung,> 100 µM
same,GI50,SNB-75 CNS,2.97 µM
same,TGI,SNB-75 CNS,> 100 µM
same,GI50,HL-60(TB) leukemia,2.5 µM
same,TGI,HL-60(TB) leukemia,6.1 µM
